From the NIST ThermoML archive (doi:10.1021/je0201976)
Values joined by “and” are separate entries in the source; they are usually repeats but may differ in a detail not shown here. Equal values may be shown once.

Conditions: Liquid

FC(F)C(F)(F)COC(F)(F)C(F)C(F)(F)F (configuration not stated) [1,1,1,2,3,3-hexafluoro-3-(2,2,3,3-tetrafluoropropoxy)propane]
Conditions	Critical pressure [kPa]	Critical temperature [K]	vapor or sublimation pressure [kPa]
–	2172	516.21	–
285.28 K	–	–	6.2
302.65 K	–	–	12.5
312.63 K	–	–	19.8
322.62 K	–	–	30.9
332.69 K	–	–	45.8
342.69 K	–	–	62.9
352.75 K	–	–	88.5
362.72 K	–	–	129.9
372.8 K	–	–	175.3
382.83 K	–	–	229
392.86 K	–	–	294.8
402.89 K	–	–	374.7
412.92 K	–	–	469.1
422.94 K	–	–	581.8
432.97 K	–	–	715.5
443 K	–	–	870.9
453.03 K	–	–	1049.5
463.06 K	–	–	1252.9
473.08 K	–	–	1484.4
481.14 K	–	–	1745.4
490.97 K	–	–	2048
499.97 K	–	–	2137.8
500.79 K	–	–	2176.3

CC(F)(F)Cl [1-chloro-1,1-difluoroethane]
Conditions	Critical density [kg/m3]	Critical pressure [kPa]	Critical temperature [K]
–	442	–	–
Direct measurement	–	4054	–
Visual observation in an unstirred cell	–	–	410.3

FC(F)C(F)(F)OCC(F)(F)F [2,2,2-trifluoroethyl 1,1,2,2-tetrafluoroethyl ether]
Conditions	Critical density [kg/m3]	Critical pressure [kPa]	Critical temperature [K]	vapor or sublimation pressure [kPa]
–	541	–	–	–
297.29 K	–	–	–	27.8
313.67 K	–	–	–	55.7
322.82 K	–	–	–	79.9
332.69 K	–	–	–	114.5
342.88 K	–	–	–	162
352.74 K	–	–	–	221.2
362.7 K	–	–	–	296.8
372.69 K	–	–	–	391.4
382.81 K	–	–	–	510.6
392.83 K	–	–	–	651.7
402.83 K	–	–	–	821.2
413.9 K	–	–	–	1046.2
422.92 K	–	–	–	1260.9
432.91 K	–	–	–	1536.4
442.98 K	–	–	–	1859.3
452.95 K	–	–	–	2231
462.99 K	–	–	–	2668.5
463.89 K	–	–	–	2713.3
463.94 K	–	–	–	2715.8
Direct measurement	–	2713	–	–
Visual observation in an unstirred cell	–	–	463.89	–

FC(F)C(F)(F)OCC(F)(F)C(F)(F)F [1,1,1,2,2-pentafluoro-3-(1,1,2,2-tetrafluoroethoxy)propane]
Conditions	Critical density [kg/m3]	Critical pressure [kPa]	Critical temperature [K]	vapor or sublimation pressure [kPa]
–	550	–	–	–
299.64 K	–	–	–	17.7
332.69 K	–	–	–	69.8
337.7 K	–	–	–	84
342.7 K	–	–	–	100.3
347.73 K	–	–	–	119.2
352.74 K	–	–	–	140.6
362.76 K	–	–	–	192.2
372.78 K	–	–	–	256.8
382.81 K	–	–	–	337.6
392.84 K	–	–	–	436.3
402.86 K	–	–	–	555.1
412.89 K	–	–	–	700
422.91 K	–	–	–	868.6
432.95 K	–	–	–	1066.1
442.97 K	–	–	–	1298
447.99 K	–	–	–	1427.4
453 K	–	–	–	1567.3
458.02 K	–	–	–	1718.4
464.03 K	–	–	–	1914.1
468.05 K	–	–	–	2055.2
473.08 K	–	–	–	2246.6
Direct measurement	–	2244	–	–
Visual observation in an unstirred cell	–	–	473.01	–

FC(F)COC(F)(F)C(F)F [1,1,2,2-tetrafluoro-2-(2,2-difluoroethoxy)ethane]
Conditions	Critical density [kg/m3]	Critical pressure [kPa]	Critical temperature [K]	vapor or sublimation pressure [kPa]
–	520	–	–	–
300.91 K	–	–	–	12.8
322.65 K	–	–	–	33.9
332.67 K	–	–	–	50.8
342.69 K	–	–	–	75
352.73 K	–	–	–	106.1
362.73 K	–	–	–	147.5
372.78 K	–	–	–	202.5
382.8 K	–	–	–	268.1
392.83 K	–	–	–	351.4
402.87 K	–	–	–	453.5
412.89 K	–	–	–	576.7
422.92 K	–	–	–	723.9
432.95 K	–	–	–	898.2
442.97 K	–	–	–	1102.4
453 K	–	–	–	1341.6
463.02 K	–	–	–	1615.4
473.05 K	–	–	–	1931
482.09 K	–	–	–	2256.7
491.9 K	–	–	–	2658.1
497.81 K	–	–	–	2932.7
501.3 K	–	–	–	3101.6
Direct measurement	–	3090	–	–
Visual observation in an unstirred cell	–	–	501.08	–

FC(C(F)(F)F)C(F)(F)OCC(F)(F)C(F)(F)F (configuration not stated)
Conditions	Critical density [kg/m3]	Critical pressure [kPa]	Critical temperature [K]	vapor or sublimation pressure [kPa]
–	567	–	–	–
312.48 K	–	–	–	14.7
342.64 K	–	–	–	54.8
352.72 K	–	–	–	79.1
362.78 K	–	–	–	113.1
372.77 K	–	–	–	157
382.71 K	–	–	–	211.7
402.89 K	–	–	–	360.6
412.9 K	–	–	–	460.7
422.79 K	–	–	–	575.4
432.96 K	–	–	–	717.1
443 K	–	–	–	881.9
453 K	–	–	–	1067.4
461.47 K	–	–	–	1255.3
473.07 K	–	–	–	1548.7
483.09 K	–	–	–	1842.8
486.67 K	–	–	–	1954.3
Direct measurement	–	1950	–	–
Visual observation in an unstirred cell	–	–	486.48	–

FC(F)(F)COCC(F)(F)F [1,1,1-trifluoro-2-(2,2,2-trifluoroethoxy)ethane]
Conditions	Critical density [kg/m3]	Critical pressure [kPa]	Critical temperature [K]	vapor or sublimation pressure
–	500	–	–	–
293.4 K	–	–	–	18 kPa
293.59 K	–	–	–	18.2 kPa
303.09 K	–	–	–	27.9 kPa
303.12 K	–	–	–	28 kPa
313.12 K	–	–	–	42.6 kPa
313.14 K	–	–	–	42.8 kPa
323.15 K	–	–	–	63.3 kPa
323.17 K	–	–	–	63.4 kPa
333.2 K	–	–	–	91.3 kPa and 91.4 kPa
338.22 K	–	–	–	109 kPa
343.24 K	–	–	–	129.2 kPa
353.27 K	–	–	–	178.3 kPa
353.28 K	–	–	–	178.3 kPa
363.31 K	–	–	–	241.1 kPa
373.34 K	–	–	–	320 kPa
373.35 K	–	–	–	320.1 kPa
383.38 K	–	–	–	417.4 kPa and 417.3 kPa
393.43 K	–	–	–	536.2 kPa and 536.3 kPa
Direct measurement	–	2783	–	–
Visual observation in an unstirred cell	–	–	476.31	–

CCOC(F)(F)C(F)(F)C(F)(F)C(F)(F)F [1-ethoxy-1,1,2,2,3,3,4,4,4-nonafluorobutane]
Conditions	Critical density [kg/m3]	Critical pressure [kPa]	Critical temperature [K]	vapor or sublimation pressure [kPa]
–	518	–	–	–
309.21 K	–	–	–	22.5
332.68 K	–	–	–	57
342.71 K	–	–	–	80.7
347.73 K	–	–	–	95.4
382.82 K	–	–	–	271.9
392.84 K	–	–	–	349.2
402.87 K	–	–	–	443.3
412.66 K	–	–	–	553.4
422.65 K	–	–	–	684.8
432.89 K	–	–	–	835.3
443.2 K	–	–	–	1011.6
453.14 K	–	–	–	1212.9
473.46 K	–	–	–	1720.7
Direct measurement	–	1976	–	–
Visual observation in an unstirred cell	–	–	482.02	–

COCC(F)(F)C(F)F [1,1,2,2-tetrafluoro-3-methoxypropane]
Conditions	Critical density [kg/m3]	Critical pressure [kPa]	Critical temperature [K]	vapor or sublimation pressure [kPa]
–	453	–	–	–
342.68 K	–	–	–	84.8
347.65 K	–	–	–	101.2
352.72 K	–	–	–	120.5
362.75 K	–	–	–	166.1
372.76 K	–	–	–	222.7
382.79 K	–	–	–	293.4
392.8 K	–	–	–	379.9
402.8 K	–	–	–	484.3
412.88 K	–	–	–	610.7
422.91 K	–	–	–	758.8
432.93 K	–	–	–	934.8
442.97 K	–	–	–	1138.1
452.99 K	–	–	–	1373.5
463.01 K	–	–	–	1642.8
473.02 K	–	–	–	1952
480.13 K	–	–	–	2197.3
489.95 K	–	–	–	2573.3
499.77 K	–	–	–	3005.9
505.06 K	–	–	–	3262.8
505.35 K	–	–	–	3278.9
Direct measurement	–	3279	–	–
Visual observation in an unstirred cell	–	–	505.35	–
